Assay results from patent US10252997B2, “Monocyclic compound” (Takeda Pharmaceutical Company Limited, priority 2015, dated 2019).

Key:
HCT116 cells = assay: Growth inhibitory activity on HCT116 cell (CellTiter-Glo); type: cell-based; settings: Homo sapiens, HCT-116, 72 h; test compound 1 μM, 3 days; read-out: HCT116 cell proliferation inhibitory rate (%) at 1 μM
Procedure: The growth inhibitory activity of the compound on HCT116 cell was evaluated by the following method.
HCT116 cells were seeded in a 384 well blackplate at 900 cells/[…]/well, and maintained in an assay medium (RPMI medium (Wako) containing 2% fetal bovine serum, 50 Unit/mL penicillin and […] streptomycin (Invitrogen)). The next day, a test compound dissolved in dimethyl sulfoxide (DMSO) was diluted with the assay medium, and the obtained compound solution was added by […] to each well of a plate containing HCT116 cells, and incubated at 37° C., 5% CO2 (test compound addition group).
A similar reaction was performed without adding a test compound (test compound non-addition group).
Furthermore, a similar reaction was performed under the conditions without adding HCT116 cell and a test compound (control group).
After 3 days, […] of a CellTiter-Glo reagent (Promega KK) was added to the well, and the mixture was stirred for 10 min. Thereafter, the luminescence value of each well was measured by the EnVision™ multilabel counter (Perkin Elmer Inc.).
The HCT116 cell proliferation inhibitory rate (%) of the test compound was determined by the following calculation formula. (1−(luminescence of test compound addition group−luminescence of control group)÷(luminescence of test compound non-addition group−luminescence of control group))×100
The HCT116 cell proliferation inhibitory rates (%) of the test compound (1 μM) are shown below.

Human ACC1 = molecular target: T1, Human ACC1 (Homo sapiens, UniProt Q13085); assay: Measurement of ACC1 inhibitory activity (Malonyl-CoA produced, RapidFire-mass spectrometry); type: biochemical; settings: 10 μM of the test compound; read-out: ACC1 inhibitory rate (%) at 10 μM
T1 construct: His6 (from vector pFAST-BacHTc; purified on Ni-NTA) (N); made in house; host or cells: SF-9 insect cells, recombinant baculovirus BAC-ACC1
Procedure: (1) Cloning of Human ACC1 Gene and Preparation of Recombinant Baculovirus
Human ACC1 gene was cloned by PCR using a human liver cDNA library (Clontech) as a template and Primer 1 and Primer 2 shown below. Primer 1 and Primer 2 were prepared by adding SalI, NotI restriction enzyme recognition sequences based on the information of the base sequence of human ACC1 gene (Genbank Accession U19822).
PCR was performed using Pyrobest DNA polymerase (TAKARA BIO INC.). The obtained PCR product was cloned to pT7 Blue vector (Novagen) and after confirmation of the base sequence, digested with restriction enzymes SalI and […]. The obtained DNA fragment was inserted into pFAST-BacHTc (Invitrogen) digested with restriction enzymes SalI and […] to give expression plasmid ACC1/pFAST-BacHTc.
Using the expression plasmid ACC1/pFAST-BacHTc and BAC-TO-BAC Baculovirus Expression System (Invitrogen), virus stock BAC-ACC1 of recombinant Baculovirus was prepared.
(2) Preparation of ACC1 Protein
SF-9 cells (Invitrogen) were inoculated to a medium (10 L) for insect cells (Sf-900IISFM medium (Invitrogen) containing 5% fetal bovine serum (Trace), 50 mg/L Gentamicin (Wako Pure Chemical Industries, Ltd.) and 0.1% Pluronic F-68 (Invitrogen)) at 1.0×10^6 cells/mL, and cultured with shaking in Wave Bioreactor (GE Healthcare) at 27° C., 20 rpm, rocking angle 100, oxygen concentration 30%.
On day 2 of the culture, recombinant Baculovirus BAC-ACC1 was added, and the cells were cultured for 3 days. The culture medium was centrifuged at 4000×g for 10 min to give virus-infected cells. The cells were washed with phosphate buffered saline (Invitrogen) and centrifuged under the same conditions. The obtained cells were cryopreserved at −80° C.
The cryopreserved cells were thawed in ice, and suspended in 800 mL of 25 mM HEPES buffer (pH 7.5) containing 10% Glycerol, 0.3 M NaCl, 1 mM EDTA, 25 mM Sodium β-Glycerophosphate and 1 mM Sodium Orthovanadate, and supplemented with Complete Protease Inhibitor (Roche). The obtained suspension was homogenized two times in a polytron homogenizer (Kinematica) at 20,000 rpm for 20 sec. The obtained cell disruption solution was clarified by centrifugation at 186,000×g for 60 min, and the supernatant was passed through Ni-NTA Superflow Cartridges (5 mL) (QUIAGEN). Furthermore, it was washed with 25 mM HEPES buffer (pH 7.5) containing 20 mM Imidazole and 0.3 M NaCl, and eluted with 25 mM HEPES buffer (pH 7.5) containing 250 mM Imidazol and 0.3 M NaCl. The eluate was concentrated by Amicon Ultra-15 (Nihon Millipore K.K.) having a fraction molecular weight of 50K. The obtained concentrate was subjected to gel filtration with 50 mM HEPES buffer (pH 7.5) containing 10 mM MgCl2, 2 mM dithiothreitol, 10 mM tripotassium citrate and 0.3 M NaCl by using HiLoad 26/60 Superdex200 prep grade gel filtration column (GE Healthcare) to give ACC1. The obtained ACC1 was cryopreserved at −80° C.
(3) Measurement of ACC1 Inhibitory Activity
ACC1 obtained in the above-mentioned (2) was diluted with an enzyme reaction buffer (50 mM HEPES (pH 7.5), 10 mM MgCl2, 10 mM Tripottasium Citrate, 2 mM Dithiothreitol, 0.001% Fatty acid free BSA) to a concentration of 0.2 μg/ml, and the mixture was added to each well of a 384 well assay plate by 10 μl. A test compound dissolved in dimethyl sulfoxide (DMSO) was diluted with an enzyme reaction buffer, and the resulting solution (5 μl) was added to each well. The mixture was incubated at room temperature for 60 min. Then, a substrate solution (50 mM KHCO3, 200 μM ATP, 200 μM Acetyl-CoA, 5 μl) was added to each well, and the mixture was reacted at room temperature for 30 min. The reaction was quenched by adding a reaction quenching liquid (1.3% formic acid, 0.2 μM Malonyl-^13C3-CoA) by 60 μL each to the obtained reaction mixtures (test compound addition group).
In addition, a reaction was performed in the same manner as above and without adding the test compound (test compound non-addition group). […]

## CC(=O)NC(C)CCc1ccn(-c2ccc(Oc3cccc(OCC4CC4)c3)cc2)n1 (stereo not shown) [Example 48, N-(4-(1-(4-(3-(cyclopropylmethoxy)phenoxy)phenyl)-1H-pyrazol-3-yl)butan-2-yl)acetamide]
HCT116 cells
  inhibition at 1 µM: 14%
Human ACC1
  inhibition at 10 µM: 96%

## CC(=O)NC(C)c1ccc(OCc2c(F)cc(Oc3cccc(OCC4CC4)c3)cc2F)cn1 (stereo not shown) [Example 69, N-(1-(5-((4-(3-(cyclopropylmethoxy)phenoxy)-2,6-difluorobenzyl)oxy)pyridin-2-yl)ethyl)acetamide]
HCT116 cells
  inhibition at 1 µM: 28%
Human ACC1
  inhibition at 10 µM: 96%
